The record followed here is patent US10457673B2, “Heteroatom containing deoxyuridine triphosphatase inhibitors” (University of Southern California, priority 2014, dated 2019).

In experiment [1] the test system is colorectal (HCT116 and SW620) cell line models. The experiment in a line: MTS growth inhibition assay. The following applies: increasing concentrations of 5-FU between 0 and 100 μmol/L; both colorectal cancer cell lines evaluated. It is filed as cell-based. On the procedure: The Cell Titer AQueous MTS assay (Promega) is carried out according to the manufacturers guidelines. […] The combination effect is determined by the combination index (CI) method utilizing Calcusyn software (Biosoft, Ferguson, Mo.). Fraction affected (FA) is calculated from the percent growth inhibition: FA=[…]. CI values <1, synergism; 1-1.2, additive and >1.2, antagonism.
MTS growth inhibition assays are performed to evaluate the effectiveness of the test compounds alone and in combination with the fluoropyrimidine thymidylate synthase (TS) inhibitor 5-fluorouracil (5-FU) at inhibiting the growth of colorectal (HCT116 and SW620) cell line models. […] Simultaneous treatment with increasing concentrations of 5-FU and a test compound at fixed concentrations of 25 μmol/L is determined.
(In general: Tetrazolium assays rely on reduction of a dye to a coloured formazan, in cell work by metabolically active cells.)

Experiment [2] deals with colorectal (HCT116), breast (MCF-7) and non-small cell lung (H1299, A549, H358 and H460) cell line models. Kind of experiment: Colony forming assay. The format is cell-based. Conditions: increasing concentrations of FUdR between 0.5 and 2.5 μmon; all cell lines evaluated. On the procedure:
Colony forming assay showing the ability of colon (SW620, HCT116), non-small cell lung (A549, H460, H1299 and H358) and breast (MCF7) cancer cells to survive and proliferate following transient 24 hour exposure to test compounds, FUdR and combinations are determined. Specifically, cells are seeded at densities between 50 and 100 cells/well in 24-well plates. […] After 24 hours, drug is removed, cells are rinsed and allowed to outgrow for 10-14 days. At the conclusion of the outgrowth, cells are fixed in 60% ice cold methanol and stained with 0.1% crystal violet, scanned and counted. Data is presented as percentage of untreated controls (mean±SD). Fraction affected and combination indexes are calculated according to the method of Chou and Talalay where <1 is indicative of a synergistic drug interaction.
In colorectal cancer cells, concentrations of test compounds ranging e.g., from 3.1 μmol/L to 50 μmol/L are combined with 0.5 μmol/L FUdR in HCT116 cells and 1 μmol/L FUdR in SW620 cells.

`O=c1[nH]cc(F)c(=O)[nH]1` [Example 5-FU, 5-fluorouracil]: the growth inhibition result in experiment [1] is on record as “dose-dependent increases in growth inhibition”. Regarding `O=c1[nH]c(=O)n([C@H]2C[C@H](O)[C@@H](CO)O2)cc1F` [FUdR, fluorodeoxyuridine], the colonies formed entry in experiment [2] is reported as “dose-dependent decreases in colonies formed”.
